Reference: ChEMBL document CHEMBL1201862, “PubChem BioAssay data set” (2004)
Calls of active or inactive are those of the source.

Key:
Genome polyprotein = Genome polyprotein (Hepatitis C virus, UniProt Q2Q167); experiment: disruption of hepatitis C core self-association – biochemical, TR-FRET, dose response (AID 2159); set-up: species or system Hepacivirus hominis;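 note: blocks dimerization of HCV core protein measured by TR-FRET between tagged core106 pairs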
SUMO-activating enzyme [1] = biological target: T1, SUMO-activating enzyme (Homo sapiens, UniProt Q9UBT2); experiment: blockers of UBC9-mediated SUMO conjugation – biochemical, AlphaScreen, SUMOylation inhibitor project, confirmation (AID 2018); type: functional
SUMO-activating enzyme [2] = biological target: T1, SUMO-activating enzyme; experiment: blockers of SAE1/SAE2–UBC9 SUMO transfer – biochemical, HTRF, uHTS, primary screen (AID 2006); type: protein-complex assay
[3] = biological target: Induced myeloid leukemia cell differentiation protein Mcl-1 (Homo sapiens, UniProt Q07820); type: functional
[4] = biological target: Eukaryotic translation initiation factor 4E (Mus musculus, UniProt P63073); experiment: blockers of eIF4G binding by eIF4E – biochemical, TR-FRET, dose response (AID 855); type: functional;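 note: potency for disrupting eIF4E binding to eIF4GI seen as loss of FRET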
[5] = biological target: T2, Carboxy-terminal domain RNA polymerase II polypeptide A small phosphatase 1 (Homo sapiens, UniProt Q9GZU7); experiment: CTDSP1 inhibitors, concentration-response, biochemical, absorbance readout, ultra-high-throughput screen actives (AID 540297); type: functional
T2 sequence (Q9GZU7 whole entry): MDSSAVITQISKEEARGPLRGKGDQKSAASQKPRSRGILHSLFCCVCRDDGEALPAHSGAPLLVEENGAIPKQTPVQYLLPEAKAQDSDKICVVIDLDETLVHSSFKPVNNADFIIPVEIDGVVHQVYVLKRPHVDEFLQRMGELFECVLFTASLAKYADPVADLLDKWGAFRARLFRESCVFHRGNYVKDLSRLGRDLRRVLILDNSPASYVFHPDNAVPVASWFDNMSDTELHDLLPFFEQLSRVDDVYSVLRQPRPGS

[6] = biological target: E3 ubiquitin-protein ligase Mdm2 (Homo sapiens, UniProt Q00987); experiment: MDM2-luc reporter signal enhancers, multi-concentration potency testing, MDM2 ubiquitin-protein ligase inhibitor program, whole-cell format, luminescence detection, 384-well microplate (AID 1394); type: functional;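 note: MDM2 E3 inhibitors raise luminescence so EC50 is for signal enhancement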
[7] = biological target: Mitogen-activated protein kinase 10 (Homo sapiens, UniProt P53779); experiment: Dose response biochemical screening assay for inhibitors of c-Jun N-Terminal Kinase 3 (JNK3). [Related pubchem assays: 746 ]
H9c2 = experiment: cells; type: functional, cell-based; conditions: Rattus norvegicus, H9c2, Myocardium;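 note: confirmatory concentration-response retest of ultra-high-throughput screening hits for modulation of myocardial damage; cell death induced by hydrogen peroxide oxidative stress; compound pretreatment for 60 min then peroxide exposure for 2 h; potency is for protecting the cells against peroxide damage rather than for killing them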
Major prion protein = Major prion protein (Homo sapiens, UniProt P04156); type: functional, cell-based
Aminopeptidase N = biological target: T3, Aminopeptidase N (Plasmodium falciparum FcB1/Columbia, UniProt O96935); experiment: malaria alanyl aminopeptidase activity blockers – biochemical, fluorogenic H-Leu-NHMec substrate, 1536-well (AID 1445); set-up: species or system Plasmodium falciparum 3D7, 3D7
T3 sequence (O96935 whole entry): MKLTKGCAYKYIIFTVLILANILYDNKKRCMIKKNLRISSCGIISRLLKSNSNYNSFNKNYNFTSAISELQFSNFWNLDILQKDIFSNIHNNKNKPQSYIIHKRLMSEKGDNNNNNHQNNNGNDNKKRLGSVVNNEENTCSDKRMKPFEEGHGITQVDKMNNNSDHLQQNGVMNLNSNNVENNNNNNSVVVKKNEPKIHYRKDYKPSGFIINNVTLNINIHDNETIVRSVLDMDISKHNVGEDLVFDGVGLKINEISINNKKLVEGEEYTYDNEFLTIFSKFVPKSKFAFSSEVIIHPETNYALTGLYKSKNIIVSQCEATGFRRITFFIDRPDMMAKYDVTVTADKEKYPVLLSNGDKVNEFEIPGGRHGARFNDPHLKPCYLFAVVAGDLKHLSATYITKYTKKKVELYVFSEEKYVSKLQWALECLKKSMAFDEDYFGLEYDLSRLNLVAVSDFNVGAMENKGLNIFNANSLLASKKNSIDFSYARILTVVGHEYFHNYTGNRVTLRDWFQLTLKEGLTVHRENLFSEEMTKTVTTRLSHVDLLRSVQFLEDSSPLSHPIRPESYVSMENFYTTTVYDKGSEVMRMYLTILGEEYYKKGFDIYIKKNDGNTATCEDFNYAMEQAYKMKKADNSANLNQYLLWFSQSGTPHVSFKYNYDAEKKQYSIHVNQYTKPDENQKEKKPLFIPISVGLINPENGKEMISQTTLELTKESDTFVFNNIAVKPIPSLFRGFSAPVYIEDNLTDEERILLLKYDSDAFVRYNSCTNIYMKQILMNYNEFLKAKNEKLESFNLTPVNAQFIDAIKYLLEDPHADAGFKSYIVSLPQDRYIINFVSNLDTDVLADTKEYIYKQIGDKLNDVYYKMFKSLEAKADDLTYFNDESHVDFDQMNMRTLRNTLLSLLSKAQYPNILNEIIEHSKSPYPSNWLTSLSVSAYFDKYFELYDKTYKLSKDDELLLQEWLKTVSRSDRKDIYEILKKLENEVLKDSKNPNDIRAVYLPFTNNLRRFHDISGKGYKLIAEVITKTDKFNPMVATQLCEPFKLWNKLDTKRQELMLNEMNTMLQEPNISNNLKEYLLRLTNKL

[8] = biological target: T4, RNA-binding protein pos-1 (Caenorhabditis elegans, UniProt G5EF15); experiment: disruptors of C. elegans POS-1 RNA interaction – biochemical, fluorescence polarization, dose response (AID 1964);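 note: purified POS-1 fused to maltose binding protein made in E. coli; potency of compounds blocking POS-1 binding to fluorescent RNA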
T4 sequence (G5EF15 whole entry): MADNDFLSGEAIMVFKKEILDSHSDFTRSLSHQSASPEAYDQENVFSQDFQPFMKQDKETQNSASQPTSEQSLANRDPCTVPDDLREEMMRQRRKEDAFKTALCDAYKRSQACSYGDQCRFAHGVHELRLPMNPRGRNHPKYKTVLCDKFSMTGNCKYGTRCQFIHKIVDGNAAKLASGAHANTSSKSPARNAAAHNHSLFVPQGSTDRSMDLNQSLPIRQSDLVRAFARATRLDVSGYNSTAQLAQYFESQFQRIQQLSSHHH

[9] = biological target: T5, Zinc finger protein mex-5 (Caenorhabditis elegans, UniProt Q9XUB2); experiment: potency of MEX-5 RNA-binding blockers – biochemical, C. elegans, fluorescence polarization, dose response (AID 1960)
T5 sequence (Q9XUB2 whole entry): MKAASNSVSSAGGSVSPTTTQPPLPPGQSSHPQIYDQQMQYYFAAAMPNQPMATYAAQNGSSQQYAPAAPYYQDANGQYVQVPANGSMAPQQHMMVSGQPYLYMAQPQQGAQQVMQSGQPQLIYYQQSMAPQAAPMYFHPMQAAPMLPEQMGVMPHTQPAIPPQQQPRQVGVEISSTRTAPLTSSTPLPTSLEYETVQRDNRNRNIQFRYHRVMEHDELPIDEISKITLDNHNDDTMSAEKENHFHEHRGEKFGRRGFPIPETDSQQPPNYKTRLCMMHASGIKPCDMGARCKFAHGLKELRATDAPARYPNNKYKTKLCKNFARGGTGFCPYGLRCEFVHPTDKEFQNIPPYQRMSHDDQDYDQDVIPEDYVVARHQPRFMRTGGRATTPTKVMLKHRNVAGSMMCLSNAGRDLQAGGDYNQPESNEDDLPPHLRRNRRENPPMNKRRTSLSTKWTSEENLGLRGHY

[10] = biological target: Bifunctional protein GlmU (Mycobacterium tuberculosis, UniProt P9WMN3); experiment: Inhibitors of Mycobacterial Glucosamine-1-phosphate acetyl transferase (GlmU). Secondary screen.; set-up: species or system Mycobacterium tuberculosis H37Rv
Cysteine protease ATG4B = biological target: T6, Cysteine protease ATG4B (Homo sapiens, UniProt Q9Y4P1); type: functional;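 note: Fluorescence-based dose-response confirmation assay measuring inhibition of ATG4B activity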
T6 sequence (Q9Y4P1 whole entry): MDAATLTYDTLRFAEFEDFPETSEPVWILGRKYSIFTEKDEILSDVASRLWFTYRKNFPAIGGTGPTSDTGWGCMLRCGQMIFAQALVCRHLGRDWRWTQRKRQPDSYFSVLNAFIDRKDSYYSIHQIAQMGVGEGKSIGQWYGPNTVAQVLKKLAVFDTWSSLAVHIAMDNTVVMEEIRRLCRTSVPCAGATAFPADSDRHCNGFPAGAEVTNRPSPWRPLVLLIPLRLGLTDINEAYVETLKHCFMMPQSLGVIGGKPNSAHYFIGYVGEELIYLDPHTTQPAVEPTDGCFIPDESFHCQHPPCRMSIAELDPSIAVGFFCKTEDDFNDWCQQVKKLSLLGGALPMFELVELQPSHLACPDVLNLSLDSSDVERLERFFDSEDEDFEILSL

Phospholipase A2 = Phospholipase A2 (Homo sapiens, UniProt P04054); type: functional;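 note: confirmatory dose-response counterscreen on phospholipase A2, testing hits that came from an ultra-high-throughput screen for ATG4B inhibitors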
[11] = biological target: DNA (cytosine-5)-methyltransferase 1 (Homo sapiens, UniProt P26358); experiment: inhibition of DNA methylation by DNMT1 – biochemical, fluorescent molecular beacon, confirmation (AID 602386); type: functional
[12] = M. tuberculosis growth inhibition, HTS (AID 449762); type: functional
[13] = biological target: T7, Rac GTPase-activating protein 1 (Homo sapiens, UniProt Q9H0H5); experiment: blockers of MgcRacGAP-driven Rac1 GTP hydrolysis – biochemical, ADP Hunter fluorescence, primary and confirmatory, confirmation (AID 624330); type: functional
T7 sequence (Q9H0H5 whole entry): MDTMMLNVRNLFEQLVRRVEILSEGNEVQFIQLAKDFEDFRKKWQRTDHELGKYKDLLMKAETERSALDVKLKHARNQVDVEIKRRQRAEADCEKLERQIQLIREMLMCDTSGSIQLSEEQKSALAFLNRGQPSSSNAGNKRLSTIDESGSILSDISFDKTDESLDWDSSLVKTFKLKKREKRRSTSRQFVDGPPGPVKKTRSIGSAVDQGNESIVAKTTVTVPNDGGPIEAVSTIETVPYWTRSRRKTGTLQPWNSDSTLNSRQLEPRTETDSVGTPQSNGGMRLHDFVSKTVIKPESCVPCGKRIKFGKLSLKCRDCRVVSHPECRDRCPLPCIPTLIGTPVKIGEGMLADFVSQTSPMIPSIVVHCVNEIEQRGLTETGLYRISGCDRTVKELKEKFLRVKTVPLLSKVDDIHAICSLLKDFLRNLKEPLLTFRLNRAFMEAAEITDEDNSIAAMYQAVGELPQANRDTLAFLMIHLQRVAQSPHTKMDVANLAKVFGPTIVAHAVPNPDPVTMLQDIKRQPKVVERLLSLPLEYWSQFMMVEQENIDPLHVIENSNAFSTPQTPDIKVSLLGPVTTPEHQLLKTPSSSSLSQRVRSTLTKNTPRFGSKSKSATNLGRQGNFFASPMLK

[14] = biological target: Heat shock protein HSP 90-alpha (Homo sapiens, UniProt P07900); experiment: Luminescence-based dose response biochemical high throughput screening assay for inhibitors of the Heat Shock Protein 90 (HSP90). [Related pubchem assays: 1831 (Summary AID.), 1846 (Confirmation screen.), 1789 (Primary screen.)]
[15] = biological target: T8, Heat shock factor protein 1 (Mus musculus, UniProt P38532); experiment: enhancement of HSF1-driven luciferase signal – cell-based, NIH3T3, luminescence, dose retest, confirmation (AID 435004); type: functional;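 note: stress induced by proteasome inhibitor MG132 added 30 min after compound; luciferase reporter driven by HSF1 response element in NIH3T3 cells; actives raise luminescence as potentiators of the MG132 stress response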
T8 sequence (P38532 whole entry): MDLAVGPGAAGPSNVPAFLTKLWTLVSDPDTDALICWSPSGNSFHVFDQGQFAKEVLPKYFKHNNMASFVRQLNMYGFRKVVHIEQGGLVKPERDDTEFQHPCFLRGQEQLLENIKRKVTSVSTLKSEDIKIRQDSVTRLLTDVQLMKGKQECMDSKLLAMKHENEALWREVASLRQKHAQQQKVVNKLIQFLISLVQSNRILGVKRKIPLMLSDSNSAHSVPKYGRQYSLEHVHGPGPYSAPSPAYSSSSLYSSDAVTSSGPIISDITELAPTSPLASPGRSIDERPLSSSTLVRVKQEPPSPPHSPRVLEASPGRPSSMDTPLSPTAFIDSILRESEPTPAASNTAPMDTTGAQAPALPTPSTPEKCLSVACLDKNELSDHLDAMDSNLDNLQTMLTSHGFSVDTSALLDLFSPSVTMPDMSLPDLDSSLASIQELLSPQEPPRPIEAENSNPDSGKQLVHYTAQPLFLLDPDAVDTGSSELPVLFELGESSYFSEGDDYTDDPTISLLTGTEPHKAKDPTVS

O=C(Nc1nccs1)c1cc(-c2ccco2)nc2ccccc12
IC50 (Genome polyprotein): > 49.8 µM (not active) | IC50 (SUMO-activating enzyme [1]): 6.87 µM (active) | IC50 (SUMO-activating enzyme [2]): 24.2 µM (active) | IC50 [3]: 2.5 µM (active) | IC50 [4]: > 64 µM (inactive) | IC50 [5]: 3.98 µM (active)

Cc1nc(CSc2nsc(/C=C/N(C)C)c2C#N)cs1
EC50 [6]: 19.8 µM (not active)

Brc1ccc(-c2nn3c(-c4ccco4)nnc3s2)o1
IC50 [7]: 58 µM (not active) | IC50 (H9c2): > 79 µM (inactive) | IC50 (Major prion protein): 4.14 µM (active) | IC50 (cells): > 138 µM (inactive)

O=C(O)c1ccc(-c2ccc(/C=C3\NC(=O)N(Cc4ccc(Cl)cc4)C3=O)o2)cc1Cl
IC50 (Aminopeptidase N): 40.8 µM (active) | EC50 [8]: 29.4 µM (active) | EC50 [9]: 23.5 µM (active) | IC50 [10]: 67.1 µM (active) | IC50 (Cysteine protease ATG4B): 16.2 µM (active) | IC50 (Phospholipase A2): 16.1 µM (active) | IC50 [11]: 4.54 µM (active)

COc1ccc(NC(=O)ON=C2c3ccccc3-c3ccccc32)cc1
IC50 [12]: > 100 µM (active)

CCCOC(=O)c1ccc(O)c(OC)c1
EC50 [6]: 468 µM (not active) | IC50 [13]: 127 µM (active)

CCOC(=O)c1csc(NC(=O)c2cc3ccccc3o2)n1
IC50 [14]: 0.784 µM (active)

C/C(=N/Cc1ccco1)C1=C(O)c2ccccc2C1=O
IC50 [7]: 30.9 µM (not active) | EC50 [15]: > 260 µM (inactive)

Nc1cc(-c2ccccc2)ccc1O
IC50 [14]: 3.39 µM (active)
